Several values for one entry are separate records, joined by “and”; a condition that tells them apart may be missing. Identical values can stand only once.
Experiments:
Experiment in all cases: KINATIV assay
Type in all cases: cell-based
Conditions in all cases: 1 μM, 90 minutes, BCWM.1 cells
[1] = molecular target: CK1g2 (Homo sapiens (Human), UniProt P78368)
Method in brief: (§1)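 Harvested cells were lysed and the lysates labeled directly with an ATP-biotin probe. Probe-bound kinases were then identified and quantitated by ACTIVX chemoproteomics. Compounds ran in duplicate against duplicate or quadruplicate controls.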

[2] = molecular target: LATS2 (Homo sapiens (Human), UniProt Q9NRM7)
Method in brief: as §1

[3] = molecular target: MARK2 (Homo sapiens (Human), UniProt Q7KZI7)
Method in brief: as §1

[4] = molecular target: BRAF (Homo sapiens (Human), UniProt P15056)
Method in brief: as §1

[5] = molecular target: NEK4 (Homo sapiens (Human), UniProt P51957)
Method in brief: as §1

[6] = system: TAO1, TAO3
Method in brief: as §1

[7] = system: MARK3, MARK4
Method in brief: as §1

[8] = molecular target: RSKL1 (Homo sapiens (Human), UniProt Q96S38)
Method in brief: as §1

[9] = system: PKD1, PKD2
Method in brief: as §1

[10] = system: MARK1, MARK2
Method in brief: as §1

[11] = molecular target: STLK5 (Homo sapiens (Human), UniProt Q7RTN6)
Sequence of STLK5 (Q7RTN6 whole entry): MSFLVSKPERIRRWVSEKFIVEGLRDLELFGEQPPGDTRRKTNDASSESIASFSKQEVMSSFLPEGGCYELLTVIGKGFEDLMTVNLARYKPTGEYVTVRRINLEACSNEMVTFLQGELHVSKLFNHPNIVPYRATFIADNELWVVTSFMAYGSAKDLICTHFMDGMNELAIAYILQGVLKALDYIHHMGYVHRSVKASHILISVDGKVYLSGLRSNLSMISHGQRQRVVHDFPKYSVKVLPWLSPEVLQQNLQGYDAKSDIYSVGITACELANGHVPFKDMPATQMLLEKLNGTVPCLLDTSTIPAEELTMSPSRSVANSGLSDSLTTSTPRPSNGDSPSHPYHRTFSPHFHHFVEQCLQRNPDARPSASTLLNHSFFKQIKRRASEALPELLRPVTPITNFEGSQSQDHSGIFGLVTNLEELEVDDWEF
Method in brief: as §1

[12] = molecular target: NEK1 (Homo sapiens (Human), UniProt Q96PY6)
Method in brief: as §1

[13] = molecular target: NEK3 (Homo sapiens (Human), UniProt P51956)
Method in brief: as §1

[14] = system: JNK1, JNK2, JNK3
Method in brief: as §1

[15] = molecular target: OSR1 (Homo sapiens (Human), UniProt O95747)
Method in brief: as §1

[16] = molecular target: IKKa (Homo sapiens (Human), UniProt O15111)
Method in brief: as §1

[17] = molecular target: CK2a1 (Homo sapiens (Human), UniProt P68400)
Method in brief: as §1

[18] = molecular target: MASTL (Homo sapiens (Human), UniProt Q96GX5)
Sequence of MASTL (Q96GX5 whole entry): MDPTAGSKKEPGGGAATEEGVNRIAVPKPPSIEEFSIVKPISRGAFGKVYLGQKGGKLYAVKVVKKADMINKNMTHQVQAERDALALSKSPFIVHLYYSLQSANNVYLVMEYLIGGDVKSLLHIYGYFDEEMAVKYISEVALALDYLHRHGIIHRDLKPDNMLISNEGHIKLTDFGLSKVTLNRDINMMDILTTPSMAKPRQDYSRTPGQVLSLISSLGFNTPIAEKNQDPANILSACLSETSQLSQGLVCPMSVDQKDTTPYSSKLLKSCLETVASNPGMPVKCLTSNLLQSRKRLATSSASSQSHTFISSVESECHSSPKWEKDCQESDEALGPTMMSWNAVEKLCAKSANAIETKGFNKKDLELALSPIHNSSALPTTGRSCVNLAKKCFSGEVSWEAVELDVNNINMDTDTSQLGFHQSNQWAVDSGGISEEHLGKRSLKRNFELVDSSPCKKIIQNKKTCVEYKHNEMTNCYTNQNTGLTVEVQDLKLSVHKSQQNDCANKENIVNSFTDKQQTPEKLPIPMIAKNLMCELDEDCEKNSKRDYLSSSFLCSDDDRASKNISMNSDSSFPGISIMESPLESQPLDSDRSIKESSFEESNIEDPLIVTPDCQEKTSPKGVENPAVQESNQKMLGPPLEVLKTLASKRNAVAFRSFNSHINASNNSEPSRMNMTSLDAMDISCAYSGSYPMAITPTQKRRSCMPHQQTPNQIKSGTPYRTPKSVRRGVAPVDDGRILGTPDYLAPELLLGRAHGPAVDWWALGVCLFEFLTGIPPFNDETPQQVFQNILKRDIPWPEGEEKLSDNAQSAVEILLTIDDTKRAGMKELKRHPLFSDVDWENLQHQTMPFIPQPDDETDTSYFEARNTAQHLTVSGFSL
Method in brief: as §1

[19] = molecular target: EphB2 (Homo sapiens (Human), UniProt P29323)
Method in brief: as §1

[20] = molecular target: Erk5 (Homo sapiens (Human), UniProt Q13164)
Method in brief: as §1

[21] = molecular target: ROCK1 (Homo sapiens (Human), UniProt Q13464)
Method in brief: as §1

[22] = system: MAST1, MAST2
Method in brief: as §1

[23] = molecular target: LCK (Homo sapiens (Human), UniProt P06239)
Method in brief: as §1

[24] = molecular target: ILK (Homo sapiens (Human), UniProt Q13418)
Method in brief: as §1

[25] = molecular target: MAP3K6 (Homo sapiens (Human), UniProt O95382)
Sequence of MAP3K6 (O95382 whole entry): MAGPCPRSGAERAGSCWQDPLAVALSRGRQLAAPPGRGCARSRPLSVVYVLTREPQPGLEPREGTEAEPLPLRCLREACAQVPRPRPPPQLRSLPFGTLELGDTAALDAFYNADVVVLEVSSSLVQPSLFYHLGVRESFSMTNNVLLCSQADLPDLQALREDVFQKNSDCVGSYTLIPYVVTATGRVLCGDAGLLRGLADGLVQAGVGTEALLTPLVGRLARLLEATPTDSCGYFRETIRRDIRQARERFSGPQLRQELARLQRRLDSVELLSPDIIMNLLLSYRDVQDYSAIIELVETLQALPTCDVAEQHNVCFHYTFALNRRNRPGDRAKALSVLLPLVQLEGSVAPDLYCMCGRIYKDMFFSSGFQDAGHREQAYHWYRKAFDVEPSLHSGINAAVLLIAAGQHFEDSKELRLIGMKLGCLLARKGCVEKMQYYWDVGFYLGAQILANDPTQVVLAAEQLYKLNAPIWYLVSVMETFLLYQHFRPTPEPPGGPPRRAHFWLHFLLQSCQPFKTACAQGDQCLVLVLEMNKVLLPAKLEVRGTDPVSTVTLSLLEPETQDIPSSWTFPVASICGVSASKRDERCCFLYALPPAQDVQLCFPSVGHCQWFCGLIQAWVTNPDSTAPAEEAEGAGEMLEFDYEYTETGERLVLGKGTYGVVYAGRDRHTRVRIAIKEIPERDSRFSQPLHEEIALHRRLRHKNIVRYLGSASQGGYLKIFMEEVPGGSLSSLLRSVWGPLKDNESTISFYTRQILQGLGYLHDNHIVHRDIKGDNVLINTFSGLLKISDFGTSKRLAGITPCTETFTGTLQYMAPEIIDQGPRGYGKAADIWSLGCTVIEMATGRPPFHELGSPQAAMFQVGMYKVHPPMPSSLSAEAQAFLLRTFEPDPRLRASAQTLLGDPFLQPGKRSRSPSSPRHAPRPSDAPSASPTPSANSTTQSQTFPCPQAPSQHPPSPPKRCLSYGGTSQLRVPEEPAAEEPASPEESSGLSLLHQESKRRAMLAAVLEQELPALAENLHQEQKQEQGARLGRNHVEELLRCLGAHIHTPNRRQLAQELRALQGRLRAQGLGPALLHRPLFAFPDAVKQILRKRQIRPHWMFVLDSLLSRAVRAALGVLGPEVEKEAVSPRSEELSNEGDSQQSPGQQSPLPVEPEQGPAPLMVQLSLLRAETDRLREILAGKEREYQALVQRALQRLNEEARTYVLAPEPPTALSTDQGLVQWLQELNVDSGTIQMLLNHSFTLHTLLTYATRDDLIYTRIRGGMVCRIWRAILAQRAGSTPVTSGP
Method in brief: as §1

[26] = molecular target: IRAK1 (Homo sapiens (Human), UniProt P51617)
Method in brief: as §1

[27] = molecular target: NEK9 (Homo sapiens (Human), UniProt Q8TD19)
Sequence of NEK9 (Q8TD19 whole entry): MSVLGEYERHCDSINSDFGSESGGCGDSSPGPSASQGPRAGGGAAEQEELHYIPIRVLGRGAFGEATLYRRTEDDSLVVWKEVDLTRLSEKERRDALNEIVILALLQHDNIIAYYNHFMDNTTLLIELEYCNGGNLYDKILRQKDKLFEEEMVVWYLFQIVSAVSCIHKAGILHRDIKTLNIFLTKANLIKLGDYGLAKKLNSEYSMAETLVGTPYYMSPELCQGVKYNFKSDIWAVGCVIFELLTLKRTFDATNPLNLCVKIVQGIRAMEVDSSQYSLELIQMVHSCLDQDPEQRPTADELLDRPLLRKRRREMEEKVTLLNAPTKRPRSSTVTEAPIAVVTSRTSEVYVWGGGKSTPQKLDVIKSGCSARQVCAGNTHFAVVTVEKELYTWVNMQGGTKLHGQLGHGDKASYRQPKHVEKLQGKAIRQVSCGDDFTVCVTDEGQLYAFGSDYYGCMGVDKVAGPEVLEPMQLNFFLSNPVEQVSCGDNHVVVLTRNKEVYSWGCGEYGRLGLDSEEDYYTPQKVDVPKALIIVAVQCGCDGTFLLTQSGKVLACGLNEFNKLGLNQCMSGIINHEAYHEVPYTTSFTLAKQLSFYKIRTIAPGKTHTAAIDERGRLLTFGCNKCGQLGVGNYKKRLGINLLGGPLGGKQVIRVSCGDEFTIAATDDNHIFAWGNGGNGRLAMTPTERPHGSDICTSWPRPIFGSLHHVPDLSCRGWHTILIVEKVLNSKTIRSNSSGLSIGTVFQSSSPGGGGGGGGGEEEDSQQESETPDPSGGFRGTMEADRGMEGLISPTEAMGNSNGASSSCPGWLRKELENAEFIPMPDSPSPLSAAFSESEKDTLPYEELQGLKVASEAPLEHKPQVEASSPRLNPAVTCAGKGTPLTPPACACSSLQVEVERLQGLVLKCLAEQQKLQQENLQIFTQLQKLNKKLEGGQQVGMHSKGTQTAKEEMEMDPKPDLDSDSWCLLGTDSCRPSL
Method in brief: as §1

[28] = molecular target: MLKL (Homo sapiens (Human), UniProt Q8NB16)
Method in brief: as §1

[29] = molecular target: CK1a (Homo sapiens (Human), UniProt P48729)
Sequence of CK1a (P48729 whole entry): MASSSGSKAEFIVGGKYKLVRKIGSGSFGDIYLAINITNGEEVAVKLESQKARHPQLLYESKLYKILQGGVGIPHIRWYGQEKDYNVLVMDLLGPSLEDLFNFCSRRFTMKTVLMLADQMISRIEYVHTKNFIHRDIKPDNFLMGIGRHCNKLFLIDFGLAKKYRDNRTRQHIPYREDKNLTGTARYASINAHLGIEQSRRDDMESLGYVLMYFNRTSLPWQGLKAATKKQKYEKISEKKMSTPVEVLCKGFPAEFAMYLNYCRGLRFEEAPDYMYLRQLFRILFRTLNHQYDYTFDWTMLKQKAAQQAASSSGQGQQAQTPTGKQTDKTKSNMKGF
Method in brief: as §1

[30] = molecular target: CaMK4 (Homo sapiens (Human), UniProt Q16566)
Method in brief: as §1

[31] = system: MAP3K2, MAP3K3
Method in brief: as §1

[32] = molecular target: MARK3 (Homo sapiens (Human), UniProt P27448)
Method in brief: as §1

[33] = molecular target: CDK9 (Homo sapiens (Human), UniProt P50750)
Sequence of CDK9 (P50750 whole entry): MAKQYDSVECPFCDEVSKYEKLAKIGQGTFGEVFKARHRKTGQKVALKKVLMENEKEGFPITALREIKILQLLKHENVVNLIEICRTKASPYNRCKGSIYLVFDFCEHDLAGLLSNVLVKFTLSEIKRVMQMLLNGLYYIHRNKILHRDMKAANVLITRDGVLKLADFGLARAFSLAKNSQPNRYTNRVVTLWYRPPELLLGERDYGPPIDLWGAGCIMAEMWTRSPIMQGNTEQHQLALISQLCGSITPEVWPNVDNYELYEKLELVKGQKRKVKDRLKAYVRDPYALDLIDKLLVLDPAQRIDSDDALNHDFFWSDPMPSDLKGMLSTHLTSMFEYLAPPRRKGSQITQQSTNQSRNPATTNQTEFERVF
Sequence of CDK9 (O60563 whole entry partner): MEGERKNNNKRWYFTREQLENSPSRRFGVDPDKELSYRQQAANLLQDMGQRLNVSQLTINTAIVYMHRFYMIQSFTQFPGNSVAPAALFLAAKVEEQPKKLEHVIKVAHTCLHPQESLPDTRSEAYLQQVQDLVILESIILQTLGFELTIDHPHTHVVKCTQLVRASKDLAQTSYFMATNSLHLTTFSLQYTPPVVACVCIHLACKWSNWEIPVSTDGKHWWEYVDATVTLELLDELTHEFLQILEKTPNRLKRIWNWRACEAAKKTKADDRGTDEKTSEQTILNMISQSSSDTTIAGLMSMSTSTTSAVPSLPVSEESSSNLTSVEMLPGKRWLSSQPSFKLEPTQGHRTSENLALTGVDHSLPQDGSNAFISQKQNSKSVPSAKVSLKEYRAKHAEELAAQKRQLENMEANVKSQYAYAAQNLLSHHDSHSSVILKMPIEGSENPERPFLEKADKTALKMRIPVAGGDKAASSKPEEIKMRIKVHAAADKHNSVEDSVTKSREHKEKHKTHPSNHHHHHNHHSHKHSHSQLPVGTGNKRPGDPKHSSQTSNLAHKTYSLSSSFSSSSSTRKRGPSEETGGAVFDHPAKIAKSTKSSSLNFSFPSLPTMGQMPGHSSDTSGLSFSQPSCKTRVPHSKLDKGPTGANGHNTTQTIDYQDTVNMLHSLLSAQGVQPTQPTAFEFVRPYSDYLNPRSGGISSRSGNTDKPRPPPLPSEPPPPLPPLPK
Method in brief: as §1

[34] = system: Wnk1, Wnk2, Wnk4
Method in brief: as §1

[35] = molecular target: RSK3 domain1 (Homo sapiens (Human), UniProt Q15349)
Method in brief: as §1

[36] = molecular target: LKB1 (Homo sapiens (Human), UniProt Q15831)
Method in brief: as §1

[37] = system: MYO3A, MYO3B
Method in brief: as §1

[38] = molecular target: MAST3 (Homo sapiens (Human), UniProt O60307)
Method in brief: as §1

[39] = molecular target: JAK1 (Homo sapiens (Human), UniProt P23458)
Method in brief: as §1

[40] = molecular target: MAP3K2 (Homo sapiens (Human), UniProt Q9Y2U5)
Method in brief: as §1

[41] = system: PITSLRE
Method in brief: as §1

[42] = molecular target: PIK3C2B (Homo sapiens (Human), UniProt O00750)
Method in brief: as §1

SMILES: C=CC(=O)N1CC[C@@H](Nc2nccc(Nc3ncc(C(=O)Nc4c(C)cccc4C)s3)n2)C1 [Example I-4]
- % change of MS signal compared to control sample [1]: −4.5%
- % change of MS signal compared to control sample [2]: −9.2%
- % change of MS signal compared to control sample [3]: 3.6%
- % change of MS signal compared to control sample [4]: 17.8%
- % change of MS signal compared to control sample [5]: 12.3%
- % change of MS signal compared to control sample [6]: 7.6%
- % change of MS signal compared to control sample [7]: 19.1%
- % change of MS signal compared to control sample [8]: 10.7%
- % change of MS signal compared to control sample [9]: −4.7%
- % change of MS signal compared to control sample [10]: 17.1%
- % change of MS signal compared to control sample [11]: 2.0% and −4.4%
- % change of MS signal compared to control sample [12]: 7.3%
- % change of MS signal compared to control sample [13]: 3.5%
- % change of MS signal compared to control sample [14]: 6.3%
- % change of MS signal compared to control sample [15]: 26.7%
- % change of MS signal compared to control sample [16]: 6.4%
- % change of MS signal compared to control sample [17]: 24.6%
- % change of MS signal compared to control sample [18]: −2.9% and −0.3%
- % change of MS signal compared to control sample [19]: >90%
- % change of MS signal compared to control sample [20]: −9.0%
- % change of MS signal compared to control sample [21]: 6.7%
- % change of MS signal compared to control sample [22]: −62.1%
- % change of MS signal compared to control sample [23]: 96.1%
- % change of MS signal compared to control sample [24]: −19.1%
- % change of MS signal compared to control sample [25]: 10.9%
- % change of MS signal compared to control sample [26]: 20.3%
- % change of MS signal compared to control sample [27]: −0.1% and 4.4%
- % change of MS signal compared to control sample [28]: −9.4%
- % change of MS signal compared to control sample [29]: −41.3%
- % change of MS signal compared to control sample [30]: −7.1%
- % change of MS signal compared to control sample [31]: 24.8%
- % change of MS signal compared to control sample [32]: 13.5%
- % change of MS signal compared to control sample [33]: −41.9%
- % change of MS signal compared to control sample [34]: −0.5%
- % change of MS signal compared to control sample [35]: −26.9%
- % change of MS signal compared to control sample [36]: −4.5%
- % change of MS signal compared to control sample [37]: 15.9%
- % change of MS signal compared to control sample [38]: 2.0%
- % change of MS signal compared to control sample [39]: −5.7%
- % change of MS signal compared to control sample [40]: 12.1%
- % change of MS signal compared to control sample [41]: −13.6%
- % change of MS signal compared to control sample [42]: −5.8%
